COc1ccc(C(=O)c2ccc(OC)cc2)cc1
solubility (mole fraction)
Settings	in benzene	in ethanol	in ethyl acetate	in isobutanol	in isopropanol	in methanol	in methyl acetate	in n-butanol	in n-propanol	in n-propyl acetate
293.15 K	0.0123	0.00091	0.00908	0.00101	0.00079	0.00067	0.00958	0.00114	0.00114	0.00947
298.15 K	0.0149	0.00109	0.0111	0.00137	0.001	0.00081	0.0115	0.00164	0.00141	0.0112
303.15 K	0.018	0.00141	0.0129	0.00168	0.0013	0.00104	0.0138	0.00214	0.00177	0.0126
308.15 K	0.0221	0.00188	0.0155	0.00237	0.00193	0.00134	0.0166	0.00306	0.00224	0.0151
313.15 K	0.0278	0.0024	0.0189	0.00313	0.00241	0.00181	0.0204	0.0036	0.00314	0.0187
318.15 K	0.0338	0.00302	0.023	0.00404	0.00308	0.00219	0.0248	0.00457	0.00403	0.0229
323.15 K	0.041	0.00402	0.0284	0.00539	0.00423	0.00286	0.0311	0.00612	0.00538	0.0277
328.15 K	0.0504	0.00516	0.0343	0.00718	0.00549	0.0037	0.0376	0.00824	0.00707	0.0329
333.15 K	0.063	0.00653	0.0408	0.00972	0.0075	0.00473	–	0.00996	0.00928	0.0406

Source: BigSolDB 2.1
